Source: the NIST ThermoML archive (doi:10.1021/acs.jced.6b00888)
Numbers after ± are expanded uncertainties.

Test: wn = mass fraction of the nth substance listed
Conditions: 101.3 kPa, Liquid, Vibrating tube method

## CN(C)CCO [2-(N,N-dimethylamino)ethanol] + O
293.15 K, w1 = 0.1
  mass density: 994.8 ± 5.2 kg/m3
293.15 K, w1 = 0.2
  mass density: 992.8 ± 5.2 kg/m3
293.15 K, w1 = 0.3
  mass density: 990.8 ± 5.3 kg/m3
293.15 K, w1 = 0.49
  mass density: 981.7 ± 5.5 kg/m3
293.15 K, w1 = 0.64
  mass density: 963 ± 5.8 kg/m3
293.15 K, w1 = 0.69
  mass density: 955.3 ± 6.4 kg/m3
293.15 K, w1 = 0.79
  mass density: 935.1 ± 6.7 kg/m3
293.15 K, w1 = 0.9
  mass density: 911.3 ± 7.2 kg/m3
293.15 K, w1 = 1
  mass density: 882.2 ± 5.2 kg/m3
298.15 K, w1 = 0.1
  mass density: 993.3 ± 5.2 kg/m3
298.15 K, w1 = 0.2
  mass density: 990.8 ± 5.2 kg/m3
298.15 K, w1 = 0.3
  mass density: 988.1 ± 5.3 kg/m3
298.15 K, w1 = 0.49
  mass density: 978 ± 5.5 kg/m3
298.15 K, w1 = 0.64
  mass density: 959 ± 5.8 kg/m3
298.15 K, w1 = 0.69
  mass density: 951.3 ± 6.5 kg/m3
298.15 K, w1 = 0.79
  mass density: 931.1 ± 6.7 kg/m3
298.15 K, w1 = 0.9
  mass density: 906.9 ± 6.9 kg/m3
298.15 K, w1 = 1
  mass density: 884 ± 5.2 kg/m3
303.15 K, w1 = 0.1
  mass density: 991.6 ± 5.3 kg/m3
303.15 K, w1 = 0.2
  mass density: 988.6 ± 5.3 kg/m3
303.15 K, w1 = 0.3
  mass density: 985.2 ± 5.3 kg/m3
303.15 K, w1 = 0.49
  mass density: 974.2 ± 5.5 kg/m3
303.15 K, w1 = 0.64
  mass density: 954.9 ± 5.9 kg/m3
303.15 K, w1 = 0.69
  mass density: 947.2 ± 6.5 kg/m3
303.15 K, w1 = 0.79
  mass density: 926.9 ± 6.8 kg/m3
303.15 K, w1 = 0.9
  mass density: 902.2 ± 6.9 kg/m3
303.15 K, w1 = 1
  mass density: 879.8 ± 5.2 kg/m3
308.15 K, w1 = 0.1
  mass density: 989.7 ± 5.3 kg/m3
308.15 K, w1 = 0.2
  mass density: 986.2 ± 5.3 kg/m3
308.15 K, w1 = 0.3
  mass density: 982.2 ± 5.3 kg/m3
308.15 K, w1 = 0.49
  mass density: 970.4 ± 5.5 kg/m3
308.15 K, w1 = 0.64
  mass density: 950.8 ± 5.9 kg/m3
308.15 K, w1 = 0.69
  mass density: 943 ± 6.5 kg/m3
308.15 K, w1 = 0.79
  mass density: 922.7 ± 6.8 kg/m3
308.15 K, w1 = 0.9
  mass density: 897.9 ± 6.9 kg/m3
308.15 K, w1 = 1
  mass density: 875.5 ± 5.2 kg/m3
313.15 K, w1 = 0.1
  mass density: 987.6 ± 5.3 kg/m3
313.15 K, w1 = 0.2
  mass density: 983.6 ± 5.3 kg/m3
313.15 K, w1 = 0.3
  mass density: 979.1 ± 5.4 kg/m3
313.15 K, w1 = 0.49
  mass density: 966.5 ± 5.5 kg/m3
313.15 K, w1 = 0.64
  mass density: 946.6 ± 5.9 kg/m3
313.15 K, w1 = 0.69
  mass density: 938.8 ± 6.5 kg/m3
313.15 K, w1 = 0.79
  mass density: 918.5 ± 6.8 kg/m3
313.15 K, w1 = 0.9
  mass density: 893.5 ± 6.9 kg/m3
313.15 K, w1 = 1
  mass density: 871.2 ± 5.2 kg/m3
318.15 K, w1 = 0.1
  mass density: 985.3 ± 5.3 kg/m3
318.15 K, w1 = 0.2
  mass density: 980.9 ± 5.3 kg/m3
318.15 K, w1 = 0.3
  mass density: 975.8 ± 5.4 kg/m3
318.15 K, w1 = 0.49
  mass density: 962.6 ± 5.6 kg/m3
318.15 K, w1 = 0.64
  mass density: 942.4 ± 5.9 kg/m3
318.15 K, w1 = 0.69
  mass density: 934.5 ± 6.5 kg/m3
318.15 K, w1 = 0.79
  mass density: 914.2 ± 6.8 kg/m3
318.15 K, w1 = 0.9
  mass density: 889.1 ± 6.9 kg/m3
318.15 K, w1 = 1
  mass density: 866.8 ± 5.2 kg/m3
323.15 K, w1 = 0.1
  mass density: 982.9 ± 5.3 kg/m3
323.15 K, w1 = 0.2
  mass density: 978.4 ± 5.3 kg/m3
323.15 K, w1 = 0.3
  mass density: 972.5 ± 5.4 kg/m3
323.15 K, w1 = 0.49
  mass density: 958.6 ± 5.6 kg/m3
323.15 K, w1 = 0.64
  mass density: 938 ± 5.9 kg/m3
323.15 K, w1 = 0.69
  mass density: 930.1 ± 6.5 kg/m3
323.15 K, w1 = 0.79
  mass density: 909.8 ± 6.8 kg/m3
323.15 K, w1 = 0.9
  mass density: 884 ± 6.9 kg/m3
323.15 K, w1 = 1
  mass density: 862.4 ± 5.2 kg/m3
328.15 K, w1 = 0.1
  mass density: 980.3 ± 5.3 kg/m3
328.15 K, w1 = 0.2
  mass density: 975.1 ± 5.3 kg/m3
328.15 K, w1 = 0.3
  mass density: 969.1 ± 5.4 kg/m3
328.15 K, w1 = 0.49
  mass density: 954.5 ± 5.6 kg/m3
328.15 K, w1 = 0.64
  mass density: 933.7 ± 5.9 kg/m3
328.15 K, w1 = 0.69
  mass density: 925.7 ± 6.5 kg/m3
328.15 K, w1 = 0.79
  mass density: 905.4 ± 6.8 kg/m3
328.15 K, w1 = 0.9
  mass density: 879.3 ± 6.9 kg/m3
328.15 K, w1 = 1
  mass density: 858 ± 5.2 kg/m3
333.15 K, w1 = 0.1
  mass density: 977.6 ± 5.3 kg/m3
333.15 K, w1 = 0.2
  mass density: 972 ± 5.4 kg/m3
333.15 K, w1 = 0.3
  mass density: 965.5 ± 5.4 kg/m3
333.15 K, w1 = 0.49
  mass density: 950.3 ± 5.6 kg/m3
333.15 K, w1 = 0.64
  mass density: 929.2 ± 6 kg/m3
333.15 K, w1 = 0.69
  mass density: 921.2 ± 6.5 kg/m3
333.15 K, w1 = 0.79
  mass density: 900.9 ± 6.8 kg/m3
333.15 K, w1 = 0.9
  mass density: 874.8 ± 6.9 kg/m3
333.15 K, w1 = 1
  mass density: 853.5 ± 5.2 kg/m3
338.15 K, w1 = 0.1
  mass density: 974.7 ± 5.4 kg/m3
338.15 K, w1 = 0.2
  mass density: 968.8 ± 5.4 kg/m3
338.15 K, w1 = 0.3
  mass density: 961.9 ± 5.5 kg/m3
338.15 K, w1 = 0.49
  mass density: 946.1 ± 5.6 kg/m3
338.15 K, w1 = 0.64
  mass density: 924.7 ± 6 kg/m3
338.15 K, w1 = 0.69
  mass density: 916.7 ± 6.5 kg/m3
338.15 K, w1 = 0.79
  mass density: 896.4 ± 6.8 kg/m3
338.15 K, w1 = 0.9
  mass density: 870.4 ± 6.9 kg/m3
338.15 K, w1 = 1
  mass density: 849 ± 5.2 kg/m3
343.15 K, w1 = 0.1
  mass density: 971.7 ± 5.4 kg/m3
343.15 K, w1 = 0.2
  mass density: 965.5 ± 5.5 kg/m3
343.15 K, w1 = 0.3
  mass density: 958.2 ± 5.5 kg/m3
343.15 K, w1 = 0.49
  mass density: 941.8 ± 5.7 kg/m3
343.15 K, w1 = 0.64
  mass density: 920.2 ± 6 kg/m3
343.15 K, w1 = 0.69
  mass density: 912.1 ± 6.5 kg/m3
343.15 K, w1 = 0.79
  mass density: 891.8 ± 6.8 kg/m3
343.15 K, w1 = 0.9
  mass density: 865.8 ± 6.9 kg/m3
343.15 K, w1 = 1
  mass density: 844.4 ± 5.2 kg/m3
